Laboratory results as given in patent publication US20230372361A1, “USE OF OXYGENATED CHOLESTEROL SULFATES FOR TREATING INFLAMMATORY CONDITIONS” (Durect Corporation, priority 2020, published 2023).

Columns and labels:
[1] = Tissue distribution by quantitative whole body autoradiography, intravenous, pigmented animals; format: in vivo, male Long Evans rats; conditions: iv 10 mg/kg
Description: Nine male Sprague Dawley rats (Group 1) were designated for the pharmacokinetic phase, 3 male Sprague Dawley rats (Group 2) for the excretion mass balance phase, and 7 male Sprague Dawley rats (Group 3) and 9 male Long Evans rats (Group 4) for the tissue distribution phase. All animals received a single intravenous dose of [^14C]-25HC3S at 10 mg/kg and a target radioactivity of 225 μCi/kg. Blood samples were collected from all Group 1 animals at approximately 0.083, 0.25, 0.5, 1, 2, 4, 8, 12, 24, 48, and 72 hours post-dose. Urine and feces were collected from all Group 2 animals periodically through 168 hours post-dose. […] Following blood collection, animals were euthanized by CO2 inhalation and carcasses frozen in a dry ice/hexane bath for processing by quantitative whole body autoradiography. Whole blood, plasma, urine, feces, cage rinse, and cage wash were analyzed for total radioactivity by liquid scintillation counting.

[2] = Metabolite profiling of plasma, urine, feces after intravenous dose (HPLC radiodetection, MS); format: in vivo, rats; conditions: iv 10 mg/kg
Description: Plasma pools were made from Group 1 rats at the 0.083, 0.25, 0.5, and 1-hour collection time points.
Urine pools were prepared for Group 2 at 0 to 6 and 6 to 12 hours post-dose. […] Four metabolites present at <10% relative observed intensity in at least 1 sample were M7 (<5% relative observed intensity), M16 (<3% relative observed intensity), M19 (<6% relative observed intensity), and M25 (<5% relative observed intensity).
Feces pools were prepared for Group 2 at 0 to 12, 12 to 24, and 24 to 48 hours post-dose.

Huh-7 cells [3] = assay: Global methylation, LINE-1 assay (pyrosequencing); format: cell-based, human; conditions: HG media, 25HC3S for 4 hours
Description: Each sample, 2 was sent to […], Inc. (Hopkinton, MA) for analysis of global methylation bisulfite sequencing. The same samples, 6 μg, were sent to Novogene Co., Ltd (Tianjin, China) for analysis of whole genome bisulfite sequencing (WGBS). Total RNA was isolated using the Promega SV total RNA isolation system (Madison, WI) with DNase treatment. […] Real-time RT-PCR was performed using SYBR Green as the indicator on ABI 7500 Fast Real-Time PCR System (Applied Biosystems, Foster City, CA). Amplifications of β-actin or GAPDH were used as internal controls. Relative messenger RNA (mRNA) expression was quantified with the comparative cycle threshold (Ct) method using the primer set shown in Table 1.1 and was expressed as 2^-ΔΔct. […] PCR reaction and product purification were performed as per the manufacturer's protocol (GE Healthcare Life Sciences). The PCR products, 10 μl, were sequenced by Pyrosequencing on the PSQ96 HS System following the manufacturer's instructions (Pyrosequencing, Qiagen). The methylation status of each CpG site was determined individually as an artificial C/T SNP using QCpG software (Pyrosequencing, Qiagen). The methylation level at each CpG site was calculated as the percentage of the methylated alleles divided by the sum of all methylated and unmethylated alleles. The mean methylation level was calculated using methylation levels of all measured CpG sites within the targeted region of each gene. Each experiment included non-CpG cytosines as internal controls to detect incomplete bisulfite conversion of the input DNA. In addition, a series of unmethylated and methylated DNA were included as controls in each PCR assay. Furthermore, PCR bias testing was performed by mixing unmethylated control DNA with in vitro methylated DNA at different ratios (0%, 5%, 10%, 25%, 50%, 75%, and 100%), followed by bisulfite modification, PCR, and Pyro-sequencing analysis.

Huh-7 cells [4] = assay: Whole genome bisulfite sequencing (WGBS), promoter 5mCpG demethylation; format: cell-based, human; conditions: 25 μM, 4 hours
Description: Huh-7 and HepG-2 cells were cultured in DMEM media supplemented with 10% heat-inactivated fetal bovine serum (FBS), high glucose (HG, 4.5 g/L) at 37° C. in a humidified atmosphere of 5% CO2.
Each sample, 2 was sent to EpigenDx, Inc. (Hopkinton, MA) for analysis of global methylation bisulfite sequencing. The same samples, 6 μg, were sent to Novogene Co., Ltd (Tianjin, China) for analysis of whole genome bisulfite sequencing (WGBS). Total RNA was isolated using the Promega SV total RNA isolation system (Madison, WI) with DNase treatment. Each sample, 2 was used for the first-strand cDNA synthesis as recommended by the manufacturer (Invitrogen, Carlsbad, CA). […] Relative messenger RNA (mRNA) expression was quantified with the comparative cycle threshold (Ct) method using the primer set shown in Table 1.1 and was expressed as 2^−ΔΔct.
Analysis of Whole Human Genome Bisulfite Sequencing (WGBS) Each sample, 5.2 μg of genomic DNA spiked with 26 ng lambda DNA, was fragmented by sonication to 200-300 bp with Covaris S220, followed by end repair and adenylation. […] These DNA fragments were treated twice with bisulfite using EZ DNA Methylation-Gold™ Kit (Zymo Research) before the resulting single-strand DNA fragments were PCR amplified using KAPA HiFi Hot Start Uracil and Ready Mix (2×). […]

[5] = set-up: species or system rats; conditions: rat, in vivo, po, 75 mg/kg
Description: The terminal elimination phase T1/2 was 27.3 hours.

**Q.** Which “binding to pigmented or non-pigmented skin or the uveal tract” value [1] does the source give for C[C@H](CCCC(C)(C)O)[C@H]1CC[C@H]2[C@@H]3CC=C4C[C@@H](OS(=O)(=O)O)CC[C@]4(C)[C@H]3CC[C@]12C [25HC3S, 25-hydroxycholesterol-3-sulfate] here?
**A.** The value was “no difference”.

**Q.** And the “plasma or whole blood concentrations versus Sprague Dawley rats” value ([1]; first 168 hours post-dose)?
**A.** The value was “no substantial difference”.

**Q.** What about the amount in feces ([2]; pools 0 to 48 hours post-dose) of the same compound?
**A.** Its amount in feces is 2 % of dose.

**Q.** What about the “share of the exposure (AUC) to 25HC3S related radioactivity in plasma” value ([2]; up to 1 hour post-dose) of the same compound?
**A.** The value was “approximately 54%”.

**Q.** What about the “Reduction of methylation (demethylation) at LINE-1 Pos1” value (Huh-7 cells [3]) of the same compound?
**A.** The value was −5%.

**Q.** What about the “Reduction of methylation (demethylation) at LINE-1 Pos3” value (Huh-7 cells [3]) of the same compound?
**A.** Its value is −10%.

**Q.** And the “Reduction of methylation (demethylation) at LINE-1 Pos 4” value (Huh-7 cells [3])?
**A.** Its value is −5.6%.

**Q.** What about the “hypomethylation levels across genomic functional regions versus vehicle” value (Huh-7 cells [4]) of the same compound?
**A.** Its value is “significantly higher hypomethylation levels than vehicle”.

**Q.** What about the “plasma Cmax” value [5] of the same compound?
**A.** The value was 3800 ng equiv./g.
